Measured values reported in ChEMBL document CHEMBL5303766, “Data for DCP probe FHT-2344” (2022).

Key:
[1] = target: 5-hydroxytryptamine receptor 1E (Homo sapiens) (UniProt P28566); settings: Compound concentration 10.0 uM
[2] = target: GABA-A receptor; anion channel (Rattus norvegicus) (UniProt O09028+P15431+P18506+P18508+P19969+P20236+P23574+P23576+P28471+P28473+P30191+P62813+P63079+P63138+Q91ZM7+Q9ES14); settings: Compound concentration 10.0 uM
[3] = GPCRScan assay: inhibition of GABA/PBR; set-up: species or system Rattus norvegicus; radioligand conc. used [nm] 0.3 – 2.0, parental cells brain tissue
[4] = target: Casein kinase II subunit alpha' (Homo sapiens) (UniProt P19784); experiment: CSNK2A2 SGC Tm panel (DSF)
Chain of Casein kinase II subunit alpha' (Homo sapiens) (P19784 whole entry, looked up): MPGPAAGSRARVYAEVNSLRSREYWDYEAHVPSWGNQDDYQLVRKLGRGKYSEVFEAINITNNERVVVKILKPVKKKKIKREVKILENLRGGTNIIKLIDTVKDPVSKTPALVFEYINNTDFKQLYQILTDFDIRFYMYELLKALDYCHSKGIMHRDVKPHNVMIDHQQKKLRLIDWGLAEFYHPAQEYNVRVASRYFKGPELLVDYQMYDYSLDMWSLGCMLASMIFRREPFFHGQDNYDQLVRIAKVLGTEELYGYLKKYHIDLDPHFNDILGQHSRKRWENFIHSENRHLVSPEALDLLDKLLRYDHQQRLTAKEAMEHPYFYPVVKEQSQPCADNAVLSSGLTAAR

[5] = target: Muscarinic acetylcholine receptor M1 (Homo sapiens) (UniProt P11229); settings: Compound concentration 10.0 uM
Chain of Muscarinic acetylcholine receptor M1 (Homo sapiens) (P11229 whole entry): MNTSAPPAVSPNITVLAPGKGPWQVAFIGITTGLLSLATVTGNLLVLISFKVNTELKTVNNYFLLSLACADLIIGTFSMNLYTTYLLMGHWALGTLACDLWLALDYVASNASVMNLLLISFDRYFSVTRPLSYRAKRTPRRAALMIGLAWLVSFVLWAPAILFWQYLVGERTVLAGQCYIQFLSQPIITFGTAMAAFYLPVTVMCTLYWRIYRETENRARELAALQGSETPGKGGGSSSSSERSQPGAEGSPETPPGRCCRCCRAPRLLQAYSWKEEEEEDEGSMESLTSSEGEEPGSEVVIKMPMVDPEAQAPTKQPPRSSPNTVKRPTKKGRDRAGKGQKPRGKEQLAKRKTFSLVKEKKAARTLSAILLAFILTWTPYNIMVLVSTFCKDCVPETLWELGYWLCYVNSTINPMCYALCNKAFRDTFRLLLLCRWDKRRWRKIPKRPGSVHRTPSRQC

[6] = target: Serine/threonine-protein kinase 26 (Homo sapiens) (UniProt Q9P289); experiment: MST4 SGC Tm panel (DSF); settings: for ΔTm: Compound concentration 10.0 uM
Chain of Serine/threonine-protein kinase 26 (Homo sapiens) (Q9P289 2-416 limits assumed): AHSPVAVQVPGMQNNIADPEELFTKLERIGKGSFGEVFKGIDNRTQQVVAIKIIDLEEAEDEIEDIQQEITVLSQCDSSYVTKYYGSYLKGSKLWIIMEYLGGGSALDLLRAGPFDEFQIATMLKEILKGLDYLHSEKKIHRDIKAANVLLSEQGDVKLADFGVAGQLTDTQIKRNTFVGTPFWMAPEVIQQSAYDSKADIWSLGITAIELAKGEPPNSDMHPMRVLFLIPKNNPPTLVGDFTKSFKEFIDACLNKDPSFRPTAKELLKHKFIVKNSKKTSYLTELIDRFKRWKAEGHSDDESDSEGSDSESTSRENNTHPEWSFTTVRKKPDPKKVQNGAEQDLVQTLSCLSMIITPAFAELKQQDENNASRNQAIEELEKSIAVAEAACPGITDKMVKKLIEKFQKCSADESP

[7] = target: SWI/SNF-related matrix-associated actin-dependent regulator of chromatin subfamily A member 4 (Homo sapiens, UniProt P51532); experiment: Measurement of the ATPase catalytic activity using the ADP-Glo detection (SMARCA4); type: functional
[8] = target: Sigma non-opioid intracellular receptor 1 (Homo sapiens, UniProt Q99720); experiment: GPCRScan assay: inhibition of Sigma 1; set-up: radioligand conc. used [nm] 4.0 – 5.0, parental cells HEKT
Chain of Sigma non-opioid intracellular receptor 1 (Q99720 whole entry): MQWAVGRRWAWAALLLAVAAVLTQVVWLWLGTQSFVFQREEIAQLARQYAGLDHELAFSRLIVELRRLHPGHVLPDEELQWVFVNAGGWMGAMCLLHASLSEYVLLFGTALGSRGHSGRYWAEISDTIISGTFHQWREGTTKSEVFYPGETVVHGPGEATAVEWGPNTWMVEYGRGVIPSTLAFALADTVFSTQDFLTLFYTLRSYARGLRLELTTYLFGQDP

[9] = target: Sodium-dependent noradrenaline transporter (Homo sapiens, UniProt P23975); experiment: GPCRScan assay: inhibition of NET; set-up: radioligand conc. used [nm] 1.3 – 5.0, parental cells stable HEK
[10] = target: 5-hydroxytryptamine receptor 2B (Homo sapiens, UniProt P41595); experiment: GPCRScan assay: inhibition of 5-HT2B; set-up: radioligand conc. used [nm] 1.0 – 2.0, parental cells stable HEK
Chain of 5-hydroxytryptamine receptor 2B (P41595 whole entry): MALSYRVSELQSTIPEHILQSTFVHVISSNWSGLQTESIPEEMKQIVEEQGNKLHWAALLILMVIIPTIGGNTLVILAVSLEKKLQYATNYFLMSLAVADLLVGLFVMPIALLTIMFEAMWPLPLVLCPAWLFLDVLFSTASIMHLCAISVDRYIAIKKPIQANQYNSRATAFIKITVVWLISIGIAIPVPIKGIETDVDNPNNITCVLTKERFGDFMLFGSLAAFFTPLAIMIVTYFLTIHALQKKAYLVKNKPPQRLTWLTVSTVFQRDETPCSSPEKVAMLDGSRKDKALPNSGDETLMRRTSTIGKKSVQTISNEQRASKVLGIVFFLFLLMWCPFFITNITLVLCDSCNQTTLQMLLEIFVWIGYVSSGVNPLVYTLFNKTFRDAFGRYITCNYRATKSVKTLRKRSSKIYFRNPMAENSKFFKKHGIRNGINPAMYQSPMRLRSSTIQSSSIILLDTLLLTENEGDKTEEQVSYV

[11] = target: Death-associated protein kinase 3 (Homo sapiens) (UniProt O43293); experiment: DAPK3 SGC Tm panel (DSF); settings: for ΔTm: Compound concentration 10.0 uM
Chain of Death-associated protein kinase 3 (Homo sapiens) (O43293 whole entry, looked up): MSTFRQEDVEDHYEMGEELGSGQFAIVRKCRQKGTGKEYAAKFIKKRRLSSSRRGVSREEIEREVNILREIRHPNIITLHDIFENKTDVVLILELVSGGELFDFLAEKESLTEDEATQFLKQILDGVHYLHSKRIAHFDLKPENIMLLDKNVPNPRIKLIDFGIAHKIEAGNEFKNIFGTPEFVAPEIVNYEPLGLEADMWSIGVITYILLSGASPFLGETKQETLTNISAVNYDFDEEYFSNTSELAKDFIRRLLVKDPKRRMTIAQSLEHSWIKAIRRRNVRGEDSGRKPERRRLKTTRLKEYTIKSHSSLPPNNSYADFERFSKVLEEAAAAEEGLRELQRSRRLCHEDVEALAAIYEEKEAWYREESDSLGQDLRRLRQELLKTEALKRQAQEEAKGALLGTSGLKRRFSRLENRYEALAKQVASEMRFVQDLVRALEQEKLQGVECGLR

[12] = target: Histamine H4 receptor (Homo sapiens) (UniProt Q9H3N8); settings: Compound concentration 10.0 uM
[13] = target: Chromodomain-helicase-DNA-binding protein 4 (Homo sapiens, UniProt Q14839); experiment: Measurement of the ATPase catalytic activity using the ADP-Glo detection ([…]); type: functional
Chain of Chromodomain-helicase-DNA-binding protein 4 (Q14839 whole entry): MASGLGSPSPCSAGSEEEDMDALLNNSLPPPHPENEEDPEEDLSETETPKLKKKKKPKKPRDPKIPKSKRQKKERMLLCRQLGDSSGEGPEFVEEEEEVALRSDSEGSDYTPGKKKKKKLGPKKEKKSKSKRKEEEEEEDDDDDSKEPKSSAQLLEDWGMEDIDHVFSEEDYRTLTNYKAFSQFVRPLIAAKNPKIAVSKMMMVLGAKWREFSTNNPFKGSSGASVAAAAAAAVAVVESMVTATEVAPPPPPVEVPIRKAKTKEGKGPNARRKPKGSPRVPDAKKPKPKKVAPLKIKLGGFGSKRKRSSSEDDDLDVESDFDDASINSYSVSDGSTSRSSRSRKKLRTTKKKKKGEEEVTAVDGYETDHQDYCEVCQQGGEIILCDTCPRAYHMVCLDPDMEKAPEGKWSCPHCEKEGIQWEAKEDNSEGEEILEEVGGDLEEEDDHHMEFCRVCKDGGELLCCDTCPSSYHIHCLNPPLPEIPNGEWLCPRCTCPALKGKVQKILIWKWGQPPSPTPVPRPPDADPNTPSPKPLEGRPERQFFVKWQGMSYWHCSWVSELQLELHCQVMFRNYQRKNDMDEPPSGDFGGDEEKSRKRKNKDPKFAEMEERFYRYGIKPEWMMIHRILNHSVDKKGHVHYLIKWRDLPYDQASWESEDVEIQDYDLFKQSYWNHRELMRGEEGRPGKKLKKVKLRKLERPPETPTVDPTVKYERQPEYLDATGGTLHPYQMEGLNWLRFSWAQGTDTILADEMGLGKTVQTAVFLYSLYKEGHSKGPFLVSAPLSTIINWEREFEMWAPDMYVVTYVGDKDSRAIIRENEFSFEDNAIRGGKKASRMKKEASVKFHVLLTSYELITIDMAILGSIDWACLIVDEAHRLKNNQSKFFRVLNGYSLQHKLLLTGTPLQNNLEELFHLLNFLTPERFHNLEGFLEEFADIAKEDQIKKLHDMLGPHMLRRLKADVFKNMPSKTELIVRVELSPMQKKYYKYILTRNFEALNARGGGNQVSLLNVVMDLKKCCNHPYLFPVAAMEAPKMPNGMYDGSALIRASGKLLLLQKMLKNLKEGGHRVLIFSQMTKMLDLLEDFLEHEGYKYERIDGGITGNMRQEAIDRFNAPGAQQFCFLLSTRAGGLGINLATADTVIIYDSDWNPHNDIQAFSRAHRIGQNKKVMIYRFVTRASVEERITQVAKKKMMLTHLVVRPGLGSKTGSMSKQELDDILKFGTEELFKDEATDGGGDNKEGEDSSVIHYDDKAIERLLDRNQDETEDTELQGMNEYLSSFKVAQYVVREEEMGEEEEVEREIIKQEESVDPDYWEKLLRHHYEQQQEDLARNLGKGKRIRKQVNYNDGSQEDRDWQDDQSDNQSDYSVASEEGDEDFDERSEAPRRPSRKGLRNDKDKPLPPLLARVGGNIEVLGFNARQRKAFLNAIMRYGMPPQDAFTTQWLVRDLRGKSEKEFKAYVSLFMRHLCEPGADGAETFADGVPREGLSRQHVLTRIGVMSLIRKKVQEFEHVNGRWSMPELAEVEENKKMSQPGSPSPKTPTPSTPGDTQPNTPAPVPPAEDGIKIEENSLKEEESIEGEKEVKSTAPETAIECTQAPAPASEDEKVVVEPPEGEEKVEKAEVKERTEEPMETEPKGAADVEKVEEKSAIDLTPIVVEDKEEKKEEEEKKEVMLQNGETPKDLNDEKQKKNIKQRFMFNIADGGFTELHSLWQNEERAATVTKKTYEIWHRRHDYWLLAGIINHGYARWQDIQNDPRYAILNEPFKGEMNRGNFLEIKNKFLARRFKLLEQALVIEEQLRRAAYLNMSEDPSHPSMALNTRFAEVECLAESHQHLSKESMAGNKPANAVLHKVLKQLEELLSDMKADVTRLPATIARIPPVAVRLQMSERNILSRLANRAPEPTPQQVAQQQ

[14] = target: Beta-3 adrenergic receptor (Homo sapiens) (UniProt P13945); settings: Compound concentration 10.0 uM
[15] = target: Casein kinase II subunit alpha' (Homo sapiens) (UniProt P19784); experiment: CSNK2A2A SGC Tm panel (DSF)

Chain of 5-hydroxytryptamine receptor 1E (Homo sapiens) (P28566 whole entry): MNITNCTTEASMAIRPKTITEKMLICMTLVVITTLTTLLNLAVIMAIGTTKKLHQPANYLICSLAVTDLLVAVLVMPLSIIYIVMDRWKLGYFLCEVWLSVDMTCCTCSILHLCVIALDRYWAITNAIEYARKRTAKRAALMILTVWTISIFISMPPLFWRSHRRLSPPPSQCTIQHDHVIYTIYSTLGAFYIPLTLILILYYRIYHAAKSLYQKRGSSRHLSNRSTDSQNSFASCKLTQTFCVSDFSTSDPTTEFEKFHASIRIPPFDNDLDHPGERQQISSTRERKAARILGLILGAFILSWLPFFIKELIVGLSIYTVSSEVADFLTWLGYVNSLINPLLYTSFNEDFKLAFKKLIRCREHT

## C[C@H](NC(=O)c1cn(C2(C#N)CC2)cn1)C(=O)Nc1nc(-c2cccc(-c3ccn(C)n3)c2)cs1
[1]
  inhibition: -0.87%
[2]
  inhibition: 49.4%
[3]
  Ki: 1580 nM
  pKi: 5.81
[4]
  delta Tm Staurosporine positive control: 4.26
[4]; Compound concentration 10.0 uM
  ΔTm: -0.217
[5]
  inhibition: 23.2%
[6]
  delta Tm Staurosporine positive control: 6.93
  ΔTm: -1.33
[7]
  IC50: 3990 nM (not active)
[8]; read-out: Ki
  Ki: 417 nM
[8]; read-out: pKi (converted)
  Ki: 407 nM
[9]
  Ki: 8270 nM
[10]; read-out: Ki
  Ki: 508 nM
[10]; read-out: pKi (converted)
  Ki: 490 nM
[11]
  delta Tm Staurosporine positive control: 16.2
  ΔTm: -1.05

## COC[C@H](NC(=O)c1ccn(S(C)(=O)=O)c1)C(=O)Nc1nc(-c2cccc(-c3ccn(C)n3)c2)cs1
[12]
  inhibition: -0.33%
[13]
  IC50: > 200000 nM (not active)
[14]
  inhibition: -3.49%
[6]
  delta Tm Staurosporine positive control: 6.93
  ΔTm: -1.14
[15]
  delta Tm Staurosporine positive control: 4.26
[15]; Compound concentration 10.0 uM
  ΔTm: 0.0547
[11]
  delta Tm Staurosporine positive control: 16.2
  ΔTm: -1.53
